Molecules are shown by their SMILES. Numbered stars: 1 amine (or outer) side, 2 acyl side, 3 side chain; on linkers, the order of the positions; unused ones are H or OH. Bridge positions count the residues as written; N and C are the ends. Square brackets hold non-standard residues; d marks the D form. Peptide text beside a SMILES is read from it. Trp(βS-Me,7-OMe) = COc1cccc2c([C@H](C)[C@H](N)C(=O)O)c[nH]c12; Ala(1-bicyclo(1.1.1)pentyl) = N[C@@H](CC12CC(C1)C2)C(=O)O; Trp(4-Cl) = N[C@@H](Cc1c[nH]c2cccc(Cl)c12)C(=O)O; Trp(7-Cl) = N[C@@H](Cc1c[nH]c2c(Cl)cccc12)C(=O)O; Phe(4-CONH2) = NC(=O)c1ccc(C[C@H](N)C(=O)O)cc1; Phe(4-COOH) = N[C@@H](Cc1ccc(C(=O)O)cc1)C(=O)O; Trp(7-aza) = N[C@@H](Cc1c[nH]c2ncccc12)C(=O)O; Pip(5R-OH) = O=C(O)[C@@H]1CC[C@@H](O)CN1; αMeW = C[C@](N)(Cc1c[nH]c2ccccc12)C(=O)O; X1 = O=C([C@@H]1CC[C@H](N[*:1])C1)[*:2]; 1Nal = N[C@@H](Cc1cccc2ccccc12)C(=O)O; 2Nal = N[C@@H](Cc1ccc2ccccc2c1)C(=O)O; Pip(4-aza) = O=C(O)[C@@H]1CNCCN1; hPhe = N[C@@H](CCc1ccccc1)C(=O)O; 3Pal = N[C@@H](Cc1cccnc1)C(=O)O; 4Pal = N[C@@H](Cc1ccncc1)C(=O)O; NMeE = CN[C@@H](CCC(=O)O)C(=O)O; NMeDab = CN[C@@H](CCN)C(=O)O; Dap(Me) = CNC[C@H](N)C(=O)O; NEtAla = CCN[C@@H](C)C(=O)O; αMeS = C[C@](N)(CO)C(=O)O; NMeA = CN[C@@H](C)C(=O)O; Nle = CCCC[C@H](N)C(=O)O; Dap = NC[C@H](N)C(=O)O; Sar = CNCC(=O)O

A word on the Kd: it is the free concentration of one partner at which half of the binding sites on the other are occupied at equilibrium, for simple one-to-one binding. A high value points to weaker binding. By IC50 is commonly meant the concentration that inhibits the measured activity by half.

Assay [1] concerns the target T1, human TNFR1 extracellular domain (ECD) protein (Homo sapiens, UniProt P19438).
T1 construct: HRV 3C protease cleavage site (C); 6His (C, cleaved yes); made in house; host or cells: Sf21 insect cells (baculovirus), secreted
T1 sequence (P19438 30-211): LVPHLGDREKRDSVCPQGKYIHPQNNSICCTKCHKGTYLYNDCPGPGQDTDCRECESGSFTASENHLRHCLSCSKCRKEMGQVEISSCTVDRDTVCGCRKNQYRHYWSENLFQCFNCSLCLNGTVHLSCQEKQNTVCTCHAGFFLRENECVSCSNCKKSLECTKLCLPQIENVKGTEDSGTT
The experiment in a line: SPR binding affinity to captured human TNFR1 ECD. The essentials:
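Read-out: kon, koff and derived affinity from SPR response units. Human TNFR1 and TNFR2 ECD, Avi-tag biotinylated with BirA, captured on a streptavidin surface; peptides injected under laminar flow in HEPES-saline with EDTA, P20 and 2% DMSO.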
On the technique in general: In SPR one partner is held on a chip, and binding of the other changes the refractive index at the surface.

Assay [2] concerns the target T2, TNFα-induced NF-κB signal transduction pathway (TNFR1 signaling) in THP-1 cells (Homo sapiens, UniProt P19438).
T2 sequence (P19438 30-455): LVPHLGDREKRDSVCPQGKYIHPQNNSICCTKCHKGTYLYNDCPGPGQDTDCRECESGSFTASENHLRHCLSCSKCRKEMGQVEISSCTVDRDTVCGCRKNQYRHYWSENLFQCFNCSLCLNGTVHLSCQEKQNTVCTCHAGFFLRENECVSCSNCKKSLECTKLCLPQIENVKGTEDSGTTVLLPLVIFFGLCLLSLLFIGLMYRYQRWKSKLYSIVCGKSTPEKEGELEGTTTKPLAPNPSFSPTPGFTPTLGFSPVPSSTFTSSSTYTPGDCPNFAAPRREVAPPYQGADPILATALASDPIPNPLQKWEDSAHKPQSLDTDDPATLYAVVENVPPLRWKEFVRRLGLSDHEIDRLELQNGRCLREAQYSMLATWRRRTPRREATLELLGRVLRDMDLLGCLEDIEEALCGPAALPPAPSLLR
Nature of the assay: THP-1 Lucia NF-κB reporter cell assay, inhibition of TNFα-induced NF-κB signaling. The assay is classed as cell-based. The note with it: THP-1 NF-κB Lucia reporter cells, 10 ng/mL TNFα, 16-18 h, secreted luciferase; read-out: THP-1 IC50. The essentials:
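Inhibition of TNFR1-driven NF-κB activation was measured as luminescence of secreted reporter luciferase following overnight (16-18 h) stimulation with 10 ng/mL TNFα.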

Regarding `C[C@H]1C(=O)N[C@@H](CC(N)=O)C(=O)N[C@@H](Cc2ccncc2)C(=O)N[C@@H](Cc2ccc3ccccc3c2)C(=O)N[C@@](C)(CO)C(=O)N[C@@H](Cc2ccc(C(=O)O)cc2)C(=O)N[C@@H](Cc2ccc(O)cc2)C(=O)N(C)CC(=O)N[C@@H](Cc2c[nH]c3ccccc23)C(=O)N[C@H](C(N)=O)CSCC(=O)N[C@@H](CCCCN)C(=O)N[C@@H](Cc2ccncc2)C(=O)N[C@@H](CO)C(=O)N[C@@H](Cc2cccc3ccccc23)C(=O)N1C` [SEQ ID NO. 227] ({CH2CO}-K[4Pal]S[1Nal][NMeA]N[4Pal][2Nal][αMeS][Phe(4-COOH)]Y[Sar]WC-NH2; thioether N-14), in assay [1], binding was put at a Kd of 2.3 nM. Besides, the IC50 in assay [2] came to 13.5 nM.

With `CCCC[C@@H]1NC(=O)[C@@H]2CC[C@@H](C2)NC(=O)[C@H]([C@@H](C)c2c[nH]c3c(OC)cccc23)NC(=O)CN(C)C(=O)[C@H](Cc2ccc(C(N)=O)cc2)NC(=O)[C@H](Cc2ccc(C(N)=O)cc2)NC(=O)[C@](C)(CO)NC(=O)[C@H](Cc2c[nH]c3c(Cl)cccc23)NC(=O)[C@H](Cc2ccncc2)NC(=O)[C@H](CC(N)=O)NC(=O)[C@H](CCC(=O)O)N(C)C(=O)[C@H](Cc2c[nH]c3ccccc23)NC(=O)[C@@H]2CC[C@@H](O)CN2C(=O)[C@H](Cc2ccncc2)NC1=O` [SEQ ID NO. 229] (cyclo([4Pal][Trp(7-Cl)][αMeS][Phe(4-CONH2)][Phe(4-CONH2)][Sar][Trp(βS-Me,7-OMe)][X1][Nle][4Pal][Pip(5R-OH)]W[NMeE]N)), binding in assay [1] was characterised by a dissociation constant (Kd) of 0.14 nM. Further, the IC50 in assay [2] was determined as 0.5 nM.

Compound `CCCC[C@@H]1NC(=O)CSC[C@@H](C(N)=O)NC(=O)[C@](C)(Cc2c[nH]c3ccccc23)NC(=O)CN(C)C(=O)[C@H](Cc2ccc(O)cc2)NC(=O)[C@H](Cc2ccc(C(=O)O)cc2)NC(=O)[C@](C)(CO)NC(=O)[C@H](Cc2c[nH]c3c(Cl)cccc23)NC(=O)[C@H](Cc2ccncc2)NC(=O)[C@H](CC(N)=O)NC(=O)[C@H](CCC(=O)O)N(C)C(=O)[C@H](Cc2c[nH]c3ncccc23)NC(=O)[C@H](CCN)N(C)C(=O)[C@H](Cc2ccncc2)NC1=O` [SEQ ID NO. 231] ({CH2CO}-[Nle][4Pal][NMeDab][Trp(7-aza)][NMeE]N[4Pal][Trp(7-Cl)][αMeS][Phe(4-COOH)]Y[Sar][αMeW]C-NH2; thioether N-14) gave a Kd in assay [1] of 1.9 nM. The IC50 in assay [2] came to 6.1 nM.

Turning to `CCN1C(=O)[C@H](Cc2c[nH]c3c(Cl)cccc23)NC(=O)[C@H](CO)NC(=O)[C@H](Cc2ccncc2)NC(=O)[C@H](CC23CC(C2)C3)NC(=O)CSC[C@@H](C(N)=O)NC(=O)[C@H](Cc2c[nH]c3ncccc23)NC(=O)CN(C)C(=O)[C@H](Cc2ccc(O)cc2)NC(=O)[C@H](Cc2ccc(C(=O)O)cc2)NC(=O)[C@](C)(CO)NC(=O)[C@H](Cc2c[nH]c3ncccc23)NC(=O)[C@H](Cc2ccc(C(=O)O)cc2)NC(=O)[C@H](CC(N)=O)NC(=O)[C@@H]1C` [SEQ ID NO. 232] ({CH2CO}-[Ala(1-bicyclo(1.1.1)pentyl)][4Pal]S[Trp(7-Cl)][NEtAla]N[Phe(4-COOH)][Trp(7-aza)][αMeS][Phe(4-COOH)]Y[Sar][Trp(7-aza)]C-NH2; thioether N-14), in assay [1], the Kd was 0.7 nM. In addition, in assay [2], the IC50 worked out at 6.3 nM.

In turn, `CN1CC(=O)N[C@@H](Cc2c[nH]c3ccccc23)C(=O)N[C@H](C(N)=O)CSCC(=O)N[C@@H](CCc2ccccc2)C(=O)N[C@@H](Cc2ccncc2)C(=O)N[C@@H](CN)C(=O)N[C@@H](Cc2c[nH]c3ccccc23)C(=O)N2CCC[C@@H]2C(=O)N[C@@H](CC(N)=O)C(=O)N[C@@H](Cc2ccncc2)C(=O)N[C@@H](Cc2ccc3ccccc3c2)C(=O)N[C@@](C)(CO)C(=O)N[C@@H](Cc2ccc(C(=O)O)cc2)C(=O)N[C@@H](Cc2cccnc2)C1=O` [SEQ ID NO. 233] ({CH2CO}-[hPhe][4Pal][Dap]W[dP]N[4Pal][2Nal][αMeS][Phe(4-COOH)][3Pal][Sar]WC-NH2; thioether N-14) yielded a Kd in assay [1] of 0.78 nM. The IC50 in assay [2] amounted to 14.2 nM.

The compound `CCCC[C@@H]1NC(=O)CSC[C@@H](C(N)=O)NC(=O)[C@](C)(Cc2c[nH]c3ccccc23)NC(=O)CN(C)C(=O)[C@H](Cc2ccc(O)cc2)NC(=O)[C@H](Cc2ccc(C(=O)O)cc2)NC(=O)[C@](C)(CO)NC(=O)[C@H](Cc2c[nH]c3c(Cl)cccc23)NC(=O)[C@H](Cc2ccncc2)NC(=O)[C@H](CC(N)=O)NC(=O)[C@H](CCC(=O)O)N(C)C(=O)[C@H](Cc2c[nH]c3ncccc23)NC(=O)[C@H](CNC)NC(=O)[C@H](Cc2ccncc2)NC1=O` [SEQ ID NO. 235] ({CH2CO}-[Nle][4Pal][Dap(Me)][Trp(7-aza)][NMeE]N[4Pal][Trp(7-Cl)][αMeS][Phe(4-COOH)]Y[Sar][αMeW]C-NH2; thioether N-14) displayed a Kd in assay [1] of 1.2 nM. In assay [2], the IC50 amounted to 5 nM.

In assay [1], `CN1CC(=O)N[C@@H](Cc2c[nH]c3cccc(Cl)c23)C(=O)N[C@H](C(N)=O)CSCC(=O)N[C@@H](CCC(N)=O)C(=O)N[C@@H](Cc2ccncc2)C(=O)N[C@@H](CO)C(=O)N[C@@H](Cc2c[nH]c3ncccc23)C(=O)N(C)[C@@H](CCC(=O)O)C(=O)N[C@@H](CC(N)=O)C(=O)N[C@@H](Cc2ccncc2)C(=O)N[C@@H](Cc2c[nH]c3c(Cl)cccc23)C(=O)N[C@@](C)(CO)C(=O)N[C@@H](Cc2ccc(C(=O)O)cc2)C(=O)N[C@@H](Cc2ccc(O)cc2)C1=O` [SEQ ID NO. 239] ({CH2CO}-Q[4Pal]S[Trp(7-aza)][NMeE]N[4Pal][Trp(7-Cl)][αMeS][Phe(4-COOH)]Y[Sar][Trp(4-Cl)]C-NH2; thioether N-14) came in with a Kd of 0.3 nM. Also, the IC50 in assay [2] stood at 1.4 nM.

The compound `CCCC[C@@H]1NC(=O)[C@@H]2CC[C@@H](C2)NC(=O)[C@H]([C@@H](C)c2c[nH]c3c(OC)cccc23)NC(=O)CN(C)C(=O)[C@H](Cc2ccc(OC)cc2)NC(=O)[C@H](Cc2ccc(C(=O)O)cc2)NC(=O)[C@](C)(CO)NC(=O)[C@H](Cc2c[nH]c3c(Cl)cccc23)NC(=O)[C@H](Cc2ccc(C(N)=O)cc2)NC(=O)[C@H](CCC(N)=O)NC(=O)[C@H](CCC(=O)O)N(C)C(=O)[C@H](Cc2c[nH]c3ccccc23)NC(=O)[C@@H]2CNCCN2C(=O)[C@H](Cc2ccncc2)NC1=O` [SEQ ID NO. 240] (cyclo([4Pal][Pip(4-aza)]W[NMeE]Q[Phe(4-CONH2)][Trp(7-Cl)][αMeS][Phe(4-COOH)]Y(Me)[Sar][Trp(βS-Me,7-OMe)][X1][Nle])) displayed a Kd in assay [1] of 0.09 nM. The IC50 in assay [2] came to 1 nM.

`CN1CC(=O)N[C@@H](Cc2c[nH]c3ccccc23)C(=O)N[C@H](C(N)=O)CSCC(=O)N[C@@H](CCCCN)C(=O)N[C@@H](Cc2ccc(O)cc2)C(=O)N[C@@H](CO)C(=O)N[C@@H](Cc2c[nH]c3ccccc23)C(=O)N2CCC[C@@H]2C(=O)N[C@@H](CCC(N)=O)C(=O)N[C@@H](Cc2ccncc2)C(=O)N[C@@H](Cc2c[nH]c3ccccc23)C(=O)N[C@@](C)(CO)C(=O)N[C@@H](Cc2ccc(C(=O)O)cc2)C(=O)N[C@@H](Cc2ccc(O)cc2)C1=O` [SEQ ID NO. 242] ({CH2CO}-KYSW[dP]Q[4Pal]W[αMeS][Phe(4-COOH)]Y[Sar]WC-NH2; thioether N-14): in assay [1], the affinity, expressed as Kd, was 0.3 nM. In assay [2], the IC50 was 3 nM.
